Measured values as given in patent US20250114420A1, “ANTIMICROBIAL NATURAL COMPOSITIONS” (BIO-ACTIVES SYNERGIO LTD, priority 2022, published 2025).

Experiments:
[1] = test system: mixture of S. aureus, S. capitis, S. epidermis and S. hominis; assay: Agar plates of cream samples inoculated with skin microbiota mixture (FIGS. 1A-1D); assay type: cell-based; settings: cream sample; after 7 hours of incubation
Experimental: FIGS. […] The upper panel of each agar plate was plated with mixture of representative microorganisms to provide a control to each of the experiments.
The mixture of microorganisms represents the natural skin microbiota. […] In comparison, FIGS. 1C and 1D show samples of the cream with the bottom half of the sample containing the compositions 5A and 5B, respectively, and without preservative in the upper half.

[2] = test system: S. aureus (SA); assay: Agar dilution test; assay type: cell-based, Staphylococcus aureus; parameters: key: (+) indicates growth; (+/−) indicates partial growth; (−) indicates no growth; settings: Table 4, 24-48 hours
Experimental: (§1) An agar dilution test was carried out for various combinations of saponin extract (Sapindus mukorossi) and Styrax extract (Sumatra benzoin), with maltol extracted from wheat as an additional plant extract, for evaluating the synergistic antimicrobial effect therebetween.
(§2) The agar dilution test was carried out as follows: TSA (tryptic soy agar) or SDA (Sabouraud dextrose agar) media were melted at 99±2° C. and kept warm until seeding (43±2° C.). Into a quota of the growth medium, the maltol and extract were added and stirred. 5 ml of the mixture was poured into each test plate and left to cool and solidify. The plates were then inoculated by defined amounts of test microorganisms (E. coli, S. aureus and P. aeruginosa used on TSA plates, C. albicans and A. brasilliensis used on the SDA plates). The plates were incubated at 25-35° C. for 24-48 hours and then assessed for microorganisms' growth.
(§3) The test results for the combinations of saponin and Styrax extracts with maltol are detailed in Table 4, while the results for the compositions of saponin and Styrax extracts with maltol and citric acid are shown in Table 5. (+) indicates growth, (+/−) indicates partial growth, while (−) indicates no growth. Positive control was obtained by utilizing a commercial preservative. […]

[3] = test system: E. coli (EC); assay: Agar dilution test; assay type: cell-based, Escherichia coli; parameters: key: (+) indicates growth; (+/−) indicates partial growth; (−) indicates no growth; settings: Table 4, 24-48 hours
Experimental: as §1, §2, §3

[4] = test system: P. aeruginosa (PA); assay: Agar dilution test; assay type: cell-based, Pseudomonas aeruginosa; parameters: key: (+) indicates growth; (+/−) indicates partial growth; (−) indicates no growth; settings: Table 4, 24-48 hours
Experimental: as §1, §2, §3

[5] = test system: A. brasilliensis (AB); assay: Agar dilution test; assay type: cell-based, Aspergillus brasiliensis; parameters: key: (+) indicates growth; (+/−) indicates partial growth; (−) indicates no growth; settings: Table 4, 24-48 hours
Experimental: as §1, §2, §3

[6] = test system: C. albicans (CA); assay: Agar dilution test; assay type: cell-based, Candida albicans; parameters: key: (+) indicates growth; (+/−) indicates partial growth; (−) indicates no growth; settings: Table 4, 24-48 hours
Experimental: as §1, §2, §3

SMILES | effect on natural skin microbiota on agar plate (FIGS. 1A-1D) [1] | Agar dilution test result (growth), SA ([2]; Teat 2 (duplicate)) | Agar dilution test result (growth), SA ([2]; Test 1) | Agar dilution test result (growth), EC ([3]; Teat 2 (duplicate)) | Agar dilution test result (growth), EC ([3]; Test 1) | Agar dilution test result (growth), PA ([4]; Teat 2 (duplicate)) | Agar dilution test result (growth), PA ([4]; Test 1) | Agar dilution test result (growth), AB ([5]; Teat 2 (duplicate)) | Agar dilution test result (growth), AB ([5]; Test 1) | Agar dilution test result (growth), CA ([6]; Teat 2 (duplicate)) | Agar dilution test result (growth), CA ([6]; Test 1)
CCCCC(CC)COCC(O)CO (stereo not shown) [commercial synthetic preservative, ethylhexyl glycerin] | almost complete elimination of the microbiota |  |  |  |  |  |  |  |  |  | 
Cc1occc(=O)c1O [ML 0.02%, maltol] |  | + | + | + | + | + | + | + | + | + | +
Cc1occc(=O)c1O [ML 0.08%, maltol] |  | + | + | +/− | +/− | − | − | +/− | +/− | − | −
Cc1occc(=O)c1O [ML 0.05%, maltol] |  | +/− | +/− | + | + | +/− | +/− | + | + | + | +
Cc1occc(=O)c1O [ML 0.1%, maltol] |  | − | − | + | + | − | − | +/− | +/− | − | −
Cc1occc(=O)c1O [ML 0.2%, maltol] |  | − | − | − | − | − | − | − | − | − | −
Cc1occc(=O)c1O [ML 0.04%, maltol] |  | +/− | +/− | + | + | + | + | + | + | +/− | +/−
